Assay results taken from publication PMC12135066, “Design and Preclinical Evaluation of Novel uPAR-Targeting Radiopeptides Modified with an Albumin-Binding Entity” (Molecular Pharmaceutics, 2025).

Experiments:
[1] = Biodistribution studies in HEK-uPAR xenograft-bearing nude mice; details: female, CD1/nude, mouse, 5 MBq (0.5 nmol), total radioactivity, 5 MBq, 0.5 nmol, decay-corrected, average ± SD, n=3 animals; for tissue uptake at 4 h: 4 h p.i.; for tissue uptake at 24 h: 24 h p.i.
Description: All applicable international, national, and/or institutional guidelines for the care and use of laboratory animals were followed, and the herein reported experiments were carried out according to the guidelines of the Swiss Regulations for Animal Welfare. The preclinical studies were ethically approved by the Cantonal Committee of Animal Experimentation and permitted by the responsible cantonal authorities (License No. 75721). Five-week-old female CD1/nude (Crl:CD1-Foxn ^ nu ) and female immunocompetent FVB (FVB/NCrl) mice were obtained from Charles River Laboratories (Sulzfeld, Germany). All mice were acclimatized for at least 7 days, receiving standard rodent chow ad libitum before being included in the reported studies. The CD1/nude mice were subcutaneously inoculated with HEK-uPAR cells (7 × 10^6 cells in 100 μL PBS) on the right shoulder. […] Typically, it took 3–11 weeks to reach xenograft volumes of 40–600 mm^3 at the time of testing the tissue distribution of the radiopeptides. The immunocompetent FVB mice were used for testing the in vivo stability of the radiopeptides.
The mice were injected with the radiopeptides (5 MBq, 0.5 nmol, 100 μL) in saline containing 0.05% BSA and sacrificed at 4 and 24 h after injection of the radiopeptides. Selected tissues and organs were collected, weighed, and measured with the γ-counter (1480 Wizard, PerkinElmer). […] A p-value of <0.05 was considered a statistically significant difference (GraphPad Prism software, version 8.3.1).
Decay-corrected data is shown as average ± SD of n = 3 animals of % injected activity per gram (IA/g) tissue.

[2] = Stability of the radiopeptides in human blood plasma; details: human
Description: The radiopeptides (50 MBq/nmol) stabilized with L-ascorbic acid were diluted in mouse and human blood plasma and incubated at 37 °C. Aliquots were taken after 1, 4, and 24 h and analyzed using reversed-phase thin-layer chromatography (TLC) (Supporting Information).
aProduct peak expressed as percentage of the sum of integrated peak areas of the entire chromatogram relative to
the value obtained immediately after labeling (set as 100%), average ± standard deviation (SD) (n=3).
Stability of the Radiopeptides in Mouse and Human Blood Plasma
Purpose: The stability of the radiopeptides was assessed in mouse and human blood plasma as an
indication for their in vivo stability.
Methods: The radiopeptides (50 MBq/nmol) stabilized with L-ascorbic acid were diluted in mouse
blood plasma (Lot: 32321, Rockland Immunochemicals Inc., U.S.A.) or in human blood plasma
(Stiftung Blutspende SRK Aargau -Solothurn, Switzerland) at a concentration of 10 MBq/200 µL and
incubated at 37 °C over a 24 h time period. Control samples were prepared by diluting the radiopeptides
in saline at the same activity concentration. Aliquots of each dilution were taken after 1 h, 4 h, and 24 h
(2 µL, ~100 kBq) and investigated employing thin layer chromatography (TLC) methods on reversed-
phase TLC plates (MERCK Analytical Chromatography, TLC Silica gel 60 RP -18 F254s) as stationary
phase and a 3/7 (v/v) mixture of acetonitrile /citrate buffer (0.1 M, pH 5.5) as mobile phase. A dilution
of [177Lu]LuCl3/HCl 0.04 M (10 MBq/200 µL) was added on each TLC plate. The developed and dried
TLC plates were exposed to a phosphor screen (Super resolution screen PSR10450013, PerkinElmer)
for 1 min. The screen was read with a Cyclone Plus phosphor imager (PerkinElmer) and the peak
quantification was performed using OptiQuant Software (version 5.0).

human uPAR = molecular target: T1, human uPAR (Homo sapiens, UniProt Q03405); assay: uPAR-binding affinity (KD values), saturation experiments with HEK-uPAR cells; details: saturation binding on HEK-uPAR cells, on ice (4 °C) 1 h, 1–1600 nM radiopeptide, ± AE105 40 µM; γ-counter; nonlinear regression; average ± SD, n=3
T1 construct: host or cells: HEK cells (HEK-uPAR)
In short: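 HEK-uPAR cells incubated 1 h at 4 °C (on ice) with radiopeptide at 1–1600 nM final, with or without 40 μM AE105 as blocker. Cell-bound activity counted in a γ-counter after NaOH lysis; KD from nonlinear regression of specific binding (total minus unspecific), mean ± SD of n = 3.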

[3] = Radiolytic stability of the radiopeptides in saline with L-ascorbic acid; details: 50 MBq/nmol in saline, 150 MBq/300 µL, L-ascorbic acid (3 mg, 20 µL) and NaOAc (0.5 M, 30 µL), HPLC, product peak relative to t=0 (100%), average ± SD, n=3
Description: The radiolytic stability of the radiopeptides (50 MBq/nmol) in saline (150 MBq/300 μL) was assessed in the absence and presence of L-ascorbic acid (3 mg added in a volume of 20 μL). After an incubation period of 1, 4, and 24 h, aliquots of the solutions were analyzed using HPLC. The integrated peak area representing the intact radiopeptide was expressed as the percentage of the sum of all peaks of the chromatogram. The final amount of intact radiopeptide was expressed as the percentage of the product peak obtained at t = 0, which was set as 100% (Supporting Information).
The radiolytic stability of [177Lu]Lu-DOTA-AE105 and the new 177Lu-labeled uPAR-targeting
radiopeptides (50 MBq/nmol) was assessed in vitro in the formulated solution . The radiopeptide s were
diluted in saline to obtain an activity concentration of 150 MBq in 300 µL in the presence of L-ascorbic
acid (3 mg, 20 µL) and NaOAc (0.5 M, 30 µL) to compensate for the acidic pH. Aliquots of the dilutions
were analyzed using HPLC after incubation periods of 1 h, 4 h and 24 h . The integrated peak area
measured for the intact radioligand peak was expressed as the percentage of the sum of the integrated
peak areas of each peak present in the chromatogram. The final amount of intact radiopeptide at t = 1 h,
4 h and 24 h was expressed by correcting the obtained percentage of the product peak to this peak
obtained at t = 0, which was set as 100%.

[4] = n-Octanol/PBS distribution coefficients (logD values); details: n-octanol/PBS pH 7.4, pH 7.4
Description: The radiopeptides diluted in phosphate-buffered saline (PBS) pH 7.4 (25 μL, ∼0.5 MBq, 0.01 nmol) were added to a mixture of PBS pH 7.4 (1475 μL) and n-octanol (1500 μL). The vials were vortexed vigorously for 1 min, followed by centrifugation (560 rcf, 6 min) for phase separation. Aliquots were taken from each phase and measured in a γ-counter (1480 Wizard, PerkinElmer). The distribution coefficients were calculated as the logarithmic value of the ratio of counts per minute (cpm) measured in the n-octanol phase relative to the cpm measured in the PBS phase.
Methods: The logD value of all radiopeptides was determined in a mixture of n-octanol and phosphate
buffered saline (PBS) pH 7.4 using phase separation followed by liquid-liquid extraction.
polystyrene radioimmunoassay (RIA) tubes were prepared for each radiopeptide with 1.5 mL n-octanol
and 1.475 mL PBS pH 7.4. The RIA tubes were rigorously vortexed and subsequently let to stand so
that the phase separation could take place. The radiopeptides (50 MBq/nmol) were diluted with PBS
pH 7.4 to obtain an activity concentration of 10 MBq/0.5 mL. A volume of 25 μL of these solutions
was added to each RIA tube (25 µL, ~0.5 MBq, 0.01 nmol) followed by vortexing for 1 min.
separation was achieved by centrifugation at 560 rcf for 6 min. The activity in the n-octanol and PBS
phase, respectively, was measured in a γ-counter (Wallac Wizard 1480, PerkinElmer).
coefficients were calculated as the logarithm of the ratio of counts per minute (cpm) measured in the n-
octanol phase relative to the cpm measured in the PBS pH 7.4 phase.
as described above three independent times for each radiopeptide.

[5] = test system: mouse serum albumin (MSA); assay: Albumin-binding properties in mouse blood plasma (ultrafiltration assay); details: ultrafiltration (Amicon, 10 kDa), mouse blood plasma dilutions in PBS pH 7.4, [MSA]-to-[radiopeptide] 0.01–12500, 0.006 nmol, 37 °C 30 min, γ-counter; inverse ratio of B50, [177Lu]Lu-uPAR-01 set as 1.00; average curve of 3 experiments
[6] = test system: human serum albumin (HSA); assay: Albumin-binding properties in human blood plasma (ultrafiltration assay); details: ultrafiltration (Amicon, 10 kDa), human blood plasma dilutions in PBS pH 7.4, [HSA]-to-[radiopeptide] 0.01–20000, 0.006 nmol, 37 °C 30 min, γ-counter; inverse ratio of B50, [177Lu]Lu-uPAR-01 set as 1.00; average curve of 3 experiments
Description: The relative albumin-binding affinities of the radiopeptides in mouse and human blood plasma were determined using an ultrafiltration assay with Amicon centrifugal filters (cutoff of 10 kDa; Merck Millipore), as previously reported (Supporting Information). A fixed amount of the respective radiopeptide (15 μL, ∼300 kBq, 0.006 nmol) was added to a defined volume (150 μL) of mouse and human blood plasma dilutions to obtain [mouse serum albumin (MSA)]-to-[radiopeptide] and [human serum albumin (HSA)]-to-[radiopeptide] molar concentration ratios of 0.01–12,500 and 0.01–20,000, respectively. The data were analyzed using a semilogarithmic Hill plot with the maximum binding set as 100% (GraphPad Prism software, version 8.3.1).
Determination of the Albumin-Binding Properties
Purpose: The radiopeptides were investigated with regard to their albumin-binding capabilities in vitro
as a measure to predict blood retention in vivo.
Methods: The relative albumin-binding affinity of the radiopeptides in mouse blood plasma (Rockland
Immunochemicals, Inc., U.S.A.) and human blood plasma (Stiftung Blutspende SRK Aargau-
Solothurn, Switzerland) were determined using an ultrafiltration method. The amount of mouse serum
albumin (MSA) and human serum albumin (HSA) in mouse and human blood plasma was defined as
550 μM and 800 μM, respectively, based on measurements using a dry chemistry analyzer (DRI-CHEM
4000i, FUJIFILM, Japan). A fixed amount of radiopeptide (50 MBq/nmol, ~300 kBq, 15 μL, 0.006
nmol) was added to a defined volume (150 μL) of mouse and human blood plasma and various dilutions
thereof in PBS pH 7.4, resulting in defined [MSA]-to-[radiopeptide] or [HSA]-to-[radiopeptide] molar
concentration ratios ranging from 0.01 ‒12500 and 0.01‒20000, respectively, followed by incubation of
the samples at 37 °C for 30 min. Ice-cold PBS (150 µL, pH 7.4) was added before loading the blood
plasma samples on Amicon centrifugal filters (cut -off of 10 kDa; Merck Millipore) followed by
centrifugation (14000 rcf, 30 min, 4 °C) to allow the separation of the plasma protein -bound from the
plasma-unbound (free) fractions of each sample. The inserts of the filter devices were inverted and centrifuged at 200 rcf for 3 min to recover the protein -bound radiopeptide. The activity in the filtrate
and filter unit was measured in a γ-counter (1480 Wizard, PerkinElmer) and the counts were combined
assuming that the fraction retained in the filter membrane was not bound to proteins. The protein -bound
fraction was expressed as percentage of the whole activity (i.e. plasma protein -bound activity, activity
measured in the filtrate and activity measured in the filter (set as 100%) ). The data were analyzed using
a semi-logarithmic plot assuming a maximum binding of 100%. The Hill equation was fitted to the data
points and the half -maximum binding ( B50) based on the average curve obtained from three independent
experiments (GraphPad Prism software, version 8.3 .1). The relative albumin-binding affinit ies of the
reference compound, whose relative binding affinity was set as 1.0. The results were presented as the
B50 value obtained from the average curve from 3 independent experiments.

[7] = Stability of the radiopeptides in mouse blood plasma; details: mouse
[8] = HEK-uPAR xenograft, HEK-uPAR xgft

T1 sequence (Q03405 23-335): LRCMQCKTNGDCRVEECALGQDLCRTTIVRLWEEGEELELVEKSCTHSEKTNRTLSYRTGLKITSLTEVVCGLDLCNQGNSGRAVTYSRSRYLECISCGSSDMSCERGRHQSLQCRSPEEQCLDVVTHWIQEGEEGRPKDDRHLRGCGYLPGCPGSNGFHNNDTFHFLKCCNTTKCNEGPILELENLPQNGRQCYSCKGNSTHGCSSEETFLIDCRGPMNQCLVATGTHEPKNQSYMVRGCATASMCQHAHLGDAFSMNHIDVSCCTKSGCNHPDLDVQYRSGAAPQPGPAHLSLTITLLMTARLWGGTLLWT

**Q.** For CC(C)C[C@H](NC(=O)[C@H](Cc1ccc(O)cc1)NC(=O)[C@@H](CCCNC(=N)N)NC(=O)[C@@H](CO)NC(=O)[C@H](Cc1ccccc1)NC(=O)[C@H](CC1CCCCC1)NC(=O)[C@H](CC(=O)O)NC(=O)[C@H](CCCCNC(=O)CCCc1ccc(I)cc1)NC(=O)CN1CCN(CC(=O)O)CCN(CC(=O)O)CCN(CC(=O)O)CC1)C(=O)N[C@@H](Cc1c[nH]c2ccccc12)C(=O)N[C@@H](CO)C(N)=O [[^177Lu]Lu-uPAR-01, metal not drawn], which tissue uptake at 4 h [1, 8] is on record?
**A.** The tissue uptake at 4 h was 9.2 ± 0.2 %ID/g.

**Q.** What about the tissue uptake at 24 h [1, 8] of the same compound?
**A.** Its tissue uptake at 24 h is 5.8 ± 0.6 %ID/g.

**Q.** And the tissue uptake at 4 h ([1]; blood)?
**A.** The tissue uptake at 4 h was 16 ± 1 %ID/g.

**Q.** What about the tissue uptake at 24 h ([1]; blood) of the same compound?
**A.** The tissue uptake at 24 h was 4.5 ± 0.2 %ID/g.

**Q.** What about the tissue uptake at 4 h ([1]; bone) of the same compound?
**A.** Its tissue uptake at 4 h is 1.9 ± 0.1 %ID/g.

**Q.** And the tissue uptake at 24 h ([1]; bone)?
**A.** Its tissue uptake at 24 h is 0.81 ± 0.01 %ID/g.

**Q.** What about the tissue uptake at 4 h ([1]; brain) of the same compound?
**A.** The tissue uptake at 4 h was 0.32 ± 0.02 %ID/g.

**Q.** What about the tissue uptake at 24 h ([1]; brain) of the same compound?
**A.** Its tissue uptake at 24 h is 0.1 ± 0.01 %ID/g.

**Q.** And the tissue uptake at 4 h ([1]; heart)?
**A.** Its tissue uptake at 4 h is 5.7 ± 0.2 %ID/g.

**Q.** And the tissue uptake at 24 h ([1]; heart)?
**A.** Its tissue uptake at 24 h is 1.9 ± 0.1 %ID/g.

**Q.** What about the tissue uptake at 4 h ([1]; intestines) of the same compound?
**A.** Its tissue uptake at 4 h is 2.3 ± 0.3 %ID/g.

**Q.** What about the tissue uptake at 24 h ([1]; intestines) of the same compound?
**A.** Its tissue uptake at 24 h is 0.94 ± 0.04 %ID/g.

**Q.** And the tissue uptake at 4 h ([1]; kidneys)?
**A.** Its tissue uptake at 4 h is 5.6 ± 0.2 %ID/g.

**Q.** What about the tissue uptake at 24 h ([1]; kidneys) of the same compound?
**A.** The tissue uptake at 24 h was 4.2 ± 0.8 %ID/g.

**Q.** What about the tissue uptake at 4 h ([1]; liver) of the same compound?
**A.** Its tissue uptake at 4 h is 6.4 ± 0.3 %ID/g.

**Q.** And the tissue uptake at 24 h ([1]; liver)?
**A.** Its tissue uptake at 24 h is 1.8 ± 0.2 %ID/g.

**Q.** And the tissue uptake at 4 h ([1]; lung)?
**A.** The tissue uptake at 4 h was 9.4 ± 1 %ID/g.

**Q.** And the tissue uptake at 24 h ([1]; lung)?
**A.** The tissue uptake at 24 h was 3.3 ± 0.3 %ID/g.

**Q.** And the tissue uptake at 4 h ([1]; muscle)?
**A.** Its tissue uptake at 4 h is 1.4 ± 0.2 %ID/g.

**Q.** What about the tissue uptake at 24 h ([1]; muscle) of the same compound?
**A.** The tissue uptake at 24 h was 0.57 ± 0.07 %ID/g.

**Q.** What about the tissue uptake at 4 h ([1]; pancreas) of the same compound?
**A.** The tissue uptake at 4 h was 2 ± 0.3 %ID/g.

**Q.** And the tissue uptake at 24 h ([1]; pancreas)?
**A.** The tissue uptake at 24 h was 0.77 ± 0.04 %ID/g.

**Q.** And the tissue uptake at 4 h ([1]; salivary glands)?
**A.** Its tissue uptake at 4 h is 3.6 ± 0.3 %ID/g.

**Q.** What about the tissue uptake at 24 h ([1]; salivary glands) of the same compound?
**A.** The tissue uptake at 24 h was 1.5 ± 0.1 %ID/g.

**Q.** And the tissue uptake at 4 h ([1]; spleen)?
**A.** Its tissue uptake at 4 h is 2.7 ± 0.1 %ID/g.

**Q.** And the tissue uptake at 24 h ([1]; spleen)?
**A.** The tissue uptake at 24 h was 1.7 ± 0.2 %ID/g.

**Q.** What about the tissue uptake at 4 h ([1]; stomach) of the same compound?
**A.** The tissue uptake at 4 h was 2 ± 0.1 %ID/g.

**Q.** And the tissue uptake at 24 h ([1]; stomach)?
**A.** Its tissue uptake at 24 h is 0.78 ± 0.08 %ID/g.

**Q.** And the remaining at 1 h, 10 MBq/200 µL ([2]; blood plasma)?
**A.** Its remaining at 1 h, 10 MBq/200 µL is 100%.

**Q.** What about the remaining at 24 h, 10 MBq/200 µL ([2]; blood plasma) of the same compound?
**A.** Its remaining at 24 h, 10 MBq/200 µL is 99 ± 1%.

**Q.** And the remaining at 4 h, 10 MBq/200 µL ([2]; human blood plasma)?
**A.** Its remaining at 4 h, 10 MBq/200 µL is 99 ± 2%.

**Q.** And the Kd (human uPAR)?
**A.** Its Kd is 48 ± 6 nM.

**Q.** And the “radiolytic stability, % intact radiopeptide” value ([3]; 1 h)?
**A.** Its value is 100 ± 0%.

**Q.** What about the “radiolytic stability, % intact radiopeptide” value ([3]; 4 h) of the same compound?
**A.** Its value is 100 ± 0%.

**Q.** What about the “radiolytic stability after 24 h, intact radiopeptide [%]” value ([3]; 24 h) of the same compound?
**A.** Its value is 93 ± 4%.

**Q.** What about the logD [4] of the same compound?
**A.** Its logD is 0.78 ± 0.05.

**Q.** What about the “Relative albumin-binding affinity, mouse blood plasma” value [5] of the same compound?
**A.** The value was 1.00.

**Q.** What about the “Relative albumin-binding affinity, human blood plasma” value [6] of the same compound?
**A.** Its value is 1.00.

**Q.** And the remaining at 1 h, 10 MBq/200 µL ([7]; blood plasma)?
**A.** The remaining at 1 h, 10 MBq/200 µL was 100%.

**Q.** What about the remaining at 24 h, 10 MBq/200 µL ([7]; blood plasma) of the same compound?
**A.** The remaining at 24 h, 10 MBq/200 µL was 99 ± 1%.

**Q.** And the remaining at 4 h, 10 MBq/200 µL ([7]; mouse blood plasma)?
**A.** The remaining at 4 h, 10 MBq/200 µL was 100%.
